Measurements taken from article PMC8903076 (Journal of medicinal chemistry, 2021).

Biological target: human GCGR (Homo sapiens, UniProt P47871)
Experiment: CRE-luciferase reporter assay
Format: cell-based
Conditions: HEK293 cells stably expressing human GCGR

Chain of human GCGR (P47871 26-477): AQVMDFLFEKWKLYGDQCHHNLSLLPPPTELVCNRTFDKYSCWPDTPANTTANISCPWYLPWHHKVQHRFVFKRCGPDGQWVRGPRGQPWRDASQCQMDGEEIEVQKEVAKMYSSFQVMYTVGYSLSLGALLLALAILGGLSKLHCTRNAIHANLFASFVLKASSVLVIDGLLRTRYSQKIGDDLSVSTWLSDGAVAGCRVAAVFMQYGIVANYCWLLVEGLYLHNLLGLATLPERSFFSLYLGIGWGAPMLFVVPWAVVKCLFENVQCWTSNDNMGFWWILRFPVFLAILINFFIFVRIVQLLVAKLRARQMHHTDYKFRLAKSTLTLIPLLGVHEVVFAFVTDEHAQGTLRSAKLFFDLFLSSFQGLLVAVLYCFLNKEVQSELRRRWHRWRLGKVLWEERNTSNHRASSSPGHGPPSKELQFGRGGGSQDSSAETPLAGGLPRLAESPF

H-HAibQGTFTSDYSKYLDSRRAQDFVK^TailWLX^1T-NH2 [compound 18]
activity in activating GCGR (in words): completely lost the activity
